Key:
[1] = target: T1, GDP-loaded kRas (1-169) G12C, C51S, C80L, C118S (Homo sapiens, UniProt P01116, C118S/C51S/C80L/G12C); assay: Mass Spectrometry Reactivity Assay (MSRA), covalent adduct with kRas G12C; format: binding; conditions: 0.5 h at room temperature; 5 μM KRas protein; typical final concentration of the compounds 10 μM
T1 construct: GDP-loaded kRas (1-169) G12C, C51S, C80L, C118S
Experimental: Mass Spectrometry Reactivity Assay (MSRA)
Compounds presented in the present invention covalently bind to kRas G12C using MSRA to detect a covalent adduct of the exemplary compound and kRas G12C. GDP-loaded kRas (1-169) G12C, C51S, C80L, C118S were diluted in the protein assay buffer 25 mM Hepes pH7.5, 200 mM NaCl, 5% glycerol to concentration of 5 μM and 20 μl of protein was transferred into 96-well plate. […] See K-Ras(G12C) inhibitors allosterically control GTP affinity and effector interactions; Ostrem J M, Peters U, Sos M L, Wells J A, Shokat K M; Nature. 2013, Nov. 28; 503(7477):548-51.
Exemplary compounds dissolved in DMSO were diluted 100-fold into solution containing 20 μl of 5 μM KRas protein in the 96-well plate to initiate the reaction. Mosquito (TPP Lab tech) liquid handling robot was used to add compounds to protein solution. Typical final concentration of the compounds was 10 μM. The plates were placed on a shaker for 1 min at RT, sealed and incubated at room temperature for specified time period. 5 μl of reaction mix was added to 10 μl of 0.2% formic acid stop solution and mixed well. Typical end points were 30, 120, 600 and 1440 min.
Data were collected using Waters Acquity H-class UPLC system/Xevo G2-XS TOF mass spectrometer. The protein was injected in their liquid phase onto a Bruker Microtrap protein column TR1/15109/03. The following buffers were used to set LC gradient: Buffer A: 0.2% formic acid H20; B: 0.2% formic acid CAN. The protein was eluted from the column using the following LC Gradient: 0-0.4 min, 10% B to 30% B; 0.4 min-2.4 min, to 90% B, 2.5 min, 10% B, 3 min, 10% B. Initial data analysis was performed using MaxEnt software right after data acquisition.
The standard auto processing function was used to define percentage of unmodified and modified kRas protein using MexEnt software right after data acquisition. The highest peak was defined as 100% while smaller peak as assigned the number defined by autoprocessing function. The percent of modification corresponding to modified with exemplary compound and unmodified KRas GDP-loaded kRas (1-169) G12C, C51S, C80L, C118S were exported to Xcel data analysis software.
The percent of modified protein at the defined concentration of exemplary compound was calculated using the following formula: % mod=Num of modified peak/Sum of modified+unmodified.

[2] = target: T2, KRAS G12C in MiaPaCa2 cells (Homo sapiens, UniProt P01116, G12C); assay: MiaPaCa2 Cell Activity Assay (Raf-1 RBD capture of active Ras, MSD); format: cell-based; conditions: MIAPaCa-2 cells, 6 hours treatment; assay limit is 30.0 μM
T2 construct: endogenous in cells; host or cells: MiaPaCa2
Experimental: MiaPaCa2 Cell Activity Assay
Compounds presented in the present invention lead to the accumulation of the GDP bound Ras upon treatment of human cancer cell line.
The accumulation of the GDP-bound KRAS G12C in cellular environment was measured based on the principle that KRAS G12C only binds to its downstream kinase; Raf-1 (MAP Kinase Kinase Kinase), when in its active-GTP bound state. In this state, Ras binded to a domain of Raf-1 kinase referred to as the Ras Binding Domain (RBD).
MiaPaCa2 cells were grown in DMEM medium (Gibco 11995) supplemented with 10% fetal bovine serum and 1% penicillin/streptomycin. Cells were seeded in 96-well tissue culture plates at a density of 40,000 cells/well and allowed to attach for 16-24 hours. Test compounds were prepared as a 10 mM stock in DMSO and serially diluted in 100% DMSO using a 3-fold dilution scheme. An intermediate 5× concentrated plate in complete growth medium was made and 25 μl/well was added to the 100 μl of cells for a final concentration of 0.1% DMSO. Each concentration of exemplary compound was tested in duplicate. The negative control wells were cells with control inhibitor at 10 μM, and the positive control wells were cells without drugs, DMSO only. Plates were incubated for 6 hours at 37° C., 5% CO2. Following treatment, cells were washed 3× with ice-cold PBS and 100 μl/well ice-cold 1× Assay/Lysis. Buffer with protease inhibitors was added (25 mM HEPES, pH 7.5, 150 mM NaCl, 1% NP-40, 10 mM MgCl2, 1 mM EDTA, 2% Glycerol). Following lysis samples were frozen at −80° C.
Raf-1 RBD (LJIC-1988A1) was diluted to 100 ng/well in PBS and 5 μl/well was spot coated onto MSD high bind SECTOR plates (L15XB). Plates were incubated at room temperature for 1 hour on an orbital shaker. Plates were washed with PBS/0.05% Tween-20 and 50 μl/well of thawed lysate samples were added, followed by 50 μl of 1% MSD Blocker A in PBS/0.05% Tween-20 (R93BA). Plates were incubated for 1 hour on an orbital shaker and washed with PBS/0.05% Tween-20. 25 μl/well of Anti-pan-Ras Antibody (Cell Biolabs 244003) diluted 1:3000 was added in 1% MSD Blocker A solution and plates were incubated for 1 hour on an orbital shaker and washed with PBS/0.05% Tween-20. SULFO-TAG goat anti-mouse secondary antibody (MSD R32AC) was diluted 1:500 in MSD Blocker A solution and added at 25 μL/well. Plates were incubated for 1 hour on an orbital shaker and washed with PBS/0.05% Tween-20. 150 μl/well of Read Buffer T (MSD R92TC) diluted 1:3 in H2O was added and plates were read on a Meso Scale Discovery Sector Imager S600.
KRAS signal was normalized to maximum inhibition and DMSO control values, and IC50 values were generated using a 4 parameter fit of the dose response curve. The decrease in IC50 reflects that the exemplary compound lead to a higher level of accumulation of GDP-bound KRAS G12C than another exemplary compounds at specific timepoint of treatment of cancer cell line.

Row | SMILES | % Modification (0.5 h) [1] | IC50 [2]
1 | C=CC(=O)N1CCN(c2ncnc3c2C[C@@H](C)[C@H](c2c(CO)ccc4[nH]ncc24)C3)CC1 [Example D1, 1-(4-{(6R,7R)-7-[5-(hydroxymethyl)-1H-indazol-4-yl]-6-methyl-5,6,7,8-tetrahydroquinazolin-4-yl}piperazin-1-yl)prop-2-en-1-one] | 12% | –
2 | C=CC(=O)N1CCN(c2nc(OCCCOC)nc3c2CCC(c2c(C)ccc4[nH]ncc24)C3)CC1 (stereo not drawn) [Example C2, 1-{4-[2-(3-methoxypropoxy)-7-(5-methyl-1H-indazol-4-yl)-5,6,7,8-tetrahydroquinazolin-4-yl]piperazin-1-yl}prop-2-en-1-one] | 22% | –
3 | C=CC(=O)N1CCN(c2ncnc3c2C[C@H](C)[C@@H](c2c(C)ccc4[nH]ncc24)C3)CC1 [Example A6, 1-{4-[(6S,7S)-6-methyl-7-(5-methyl-1H-indazol-4-yl)-5,6,7,8-tetrahydroquinazolin-4-yl]piperazin-1-yl}prop-2-en-1-one] | 3% | –
4 | C=CC(=O)N1CCN(c2ncnc3c2C[C@@H](C)[C@H](c2c(C)ccc4[nH]ncc24)C3)CC1 (relative stereo) [Example A4, 1-{4-[(6R,7R)-rel-6-methyl-7-(5-methyl-1H-indazol-4-yl)-5,6,7,8-tetrahydroquinazolin-4-yl]piperazin-1-yl}prop-2-en-1-one] | 53% | 1.3 µM
5 | C=CC(=O)N1CCN(c2nc(OCCO)nc3c2CCC(c2c(C)ccc4[nH]ncc24)C3)CC1 (stereo not drawn) [Example C3, 1-{4-[2-(2-hydroxyethoxy)-7-(5-methyl-1H-indazol-4-yl)-5,6,7,8-tetrahydroquinazolin-4-yl]piperazin-1-yl}prop-2-en-1-one] | 15% | 12 µM
6 | C=CC(=O)N1CCN(c2ncnc3c2C[C@@H](C)[C@H](c2c(C)cc(O)c4[nH]ncc24)C3)CC1 [Example E1, 1-{4-[(6R,7R)-7-(7-hydroxy-5-methyl-1H-indazol-4-yl)-6-methyl-5,6,7,8-tetrahydroquinazolin-4-yl]piperazin-1-yl}prop-2-en-1-one] | 40% | –
7 | C=CC(=O)N1CC2(C1)CN(c1ncnc3c1CCC(c1c(C)ccc4[nH]ncc14)C3)C2 (stereo not drawn) [Example B1, 1-{6-[7-(5-methyl-1H-indazol-4-yl)-5,6,7,8-tetrahydroquinazolin-4-yl]-2,6-diazaspiro[3.3]hept-2-yl}prop-2-en-1-one] | 9% | 18.7 µM
8 | C=CC(=O)N1CCN(c2ncnc3c2CCC(c2c(C)ccc4[nH]ncc24)C3)[C@@H](C)C1 (stereo partly drawn) [Example B2, 1-{(3S)-3-methyl-4-[7-(5-methyl-1H-indazol-4-yl)-5,6,7,8-tetrahydroquinazolin-4-yl]piperazin-1-yl}prop-2-en-1-one] | 13% | –
9 | C=CC(=O)N1CCN(c2ncnc3c2CCC(c2c(C)ccc4[nH]ncc24)C3)CC1C (stereo not drawn) [Example B3, 1-{2-methyl-4-[7-(5-methyl-1H-indazol-4-yl)-5,6,7,8-tetrahydroquinazolin-4-yl]piperazin-1-yl}prop-2-en-1-one] | 7% | 28.4 µM
10 | C=CC(=O)N1CCN(c2ncnc3c2CC[C@H](c2c(C)ccc4[nH]ncc24)C3)CC1 (single isomer, unassigned) [Example A3] | 39% | 4.15 µM
11 | C=CC(=O)N1CCN(c2ncnc3c2CC[C@@H](c2c(C)ccc4[nH]ncc24)C3)CC1 (single isomer, unassigned) [Example A2] | 0% | –

Continued, values first:

Row | % Modification (0.5 h) [1] | IC50 [2] | SMILES
12 | 79% | 0.113 µM | C=CC(=O)N1CCN(c2nc(N3CC(N(C)C)C3)nc3c2C[C@@H](C)[C@H](c2c(C)c(Cl)cc4[nH]ncc24)C3)C[C@H]1C [Example F13, 1-[(2R)-4-{(6R,7R)-7-(6-chloro-5-methyl-1H-indazol-4-yl)-2-[3-(dimethylamino)azetidin-1-yl]-6-methyl-5,6,7,8-tetrahydroquinazolin-4-yl}-2-methylpiperazin-1-yl]prop-2-en-1-one]
13 | 0% | – | C=CC(=O)N1CCN(c2nc(N3CC(N(C)C)C3)nc3c2C[C@H](C)[C@@H](c2c(C)ccc4[nH]ncc24)C3)CC1 (single isomer, unassigned) [Example F3]
14 | 12% | 22.9 µM | C=CC(=O)N1CCN(c2nc(N3CC(N(C)C)C3)nc3c2C[C@H](C)[C@@H](c2c(Cl)c(C)cc4[nH]ncc24)C3)CC1 [Example F8, 1-(4-{(6S,7S)-7-(5-chloro-6-methyl-1H-indazol-4-yl)-2-[3-(dimethylamino)azetidin-1-yl]-6-methyl-5,6,7,8-tetrahydroquinazolin-4-yl}piperazin-1-yl)prop-2-en-1-one]
15 | 0% | – | C=CC(=O)N1CCN(c2ncnc3c2CC[C@@H](c2cc(O)cc4ccccc24)C3)CC1 (single isomer, unassigned) [Example G2]
16 | 22% | 4.29 µM | C=CC(=O)N1CCN(c2nc(N3CCN(C)CC3)nc3c2C[C@@H](C)[C@H](c2c(C)ccc4[nH]ncc24)C3)CC1 (relative stereo) [Example F4]
17 | 8% | – | C=CC(=O)N1CCN(c2nc(N3CC(N(C)C)C3)nc3c2C[C@H](C)[C@@H](c2c(Cl)ccc4[nH]ncc24)C3)CC1 (single isomer, unassigned) [Example F11]
18 | 16% | – | C=CC(=O)N1CCN(c2ncnc3c2CCC(c2c(C(F)(F)F)ccc4[nH]ncc24)C3)CC1 (stereo not drawn) [Example G1, 1-(4-(7-(5-(trifluoromethyl)-1H-indazol-4-yl)-5,6,7,8-tetrahydroquinazolin-4-yl)piperazin-1-yl)prop-2-en-1-one]
19 | – | 0.178 µM | C=CC(=O)N1CCN(c2nc(N3CC(NC)C3)nc3c2C[C@@H](C)[C@H](c2c(C)c(Cl)cc4[nH]ncc24)C3)CC1 [Example H1, 1-(4-{(6R,7R)-7-(6-chloro-5-methyl-1H-indazol-4-yl)-6-methyl-2-[3-(methylamino)azetidin-1-yl]-5,6,7,8-tetrahydroquinazolin-4-yl}piperazin-1-yl)prop-2-en-1-one]

Source: patent US10590115B2, “Tetrahydroquinazoline derivatives useful as anticancer agents” (PFIZER INC., priority 2018, dated 2020)
